Read-outs that look alike come from different tables or passages of the source.
Columns and labels:
[1] = tested on: MOLM-13 cells; assay: Cell viability assay (CellTiter-Glo) in MOLM-13 cells, alone or with gilteritinib; assay type: cell-based; details: Homo sapiens, MOLM-13, 72 h, MOLM-13 cells, three days, CellTiter-Glo
[2] = tested on: MV4;11 cells; assay: Cell viability assay (CellTiter-Glo) in MV4;11 cells, alone or with gilteritinib; assay type: cell-based; details: Homo sapiens, MV4-11, 72 h, MV4;11 cells, three days, CellTiter-Glo, read-out: MV4
[3] = compound alone (without gilteritinib), read-out: MOLM-13 IC50
[4] = with gilteritinib 20 nM, read-out: MOLM-13 IC50 gilteritinib
[5] = compound alone (without gilteritinib), 11 IC50
[6] = with gilteritinib 10 nM, 11 IC50 gilteritinib

Compound | IC50 [1, 3] [nM] | IC50 [1, 4] [nM] | IC50 [2, 5] [nM] | IC50 [2, 6] [nM]
O=C1CCC(N2Cc3ccc(CCCCC(=O)N4CCC(n5cc(-c6cnc7ccccc7n6)cn5)CC4)cc3C2=O)C(=O)N1 (stereo not shown) [GS-161, 3-(1-Oxo-6-(5-oxo-5-(4-(4-(quinoxalin-2-yl)-1H-pyrazol-1-yl)piperidin-1-yl)pentyl)isoindolin-2-yl)piperidine-2,6-dione] | > 1000 | 10 to 100 | 100 to 1000 | 10 to 100
O=C1CCC(N2Cc3cc(NCc4cccc(N5CCC(n6cc(-c7cnc8ccccc8n7)cn6)CC5)c4)ccc3C2=O)C(=O)N1 (stereo not shown) [GS-162, 3-(1-Oxo-5-((3-(4-(4-(quinoxalin-2-yl)-1H-pyrazol-1-yl)piperidin-1-yl)benzyl)amino)isoindolin-2-yl)piperidine-2,6-dione] | > 1000 | 10 to 100 | > 1000 | > 1000
N#Cc1ccc2ncc(-c3cnn(CCCCCCNc4ccc5c(c4)C(=O)N(C4CCC(=O)NC4=O)C5=O)c3)nc2c1 (stereo not shown) [GS-163, 3-(1-(6-((2-(2,6-Dioxopiperidin-3-yl)-1,3-dioxoisoindolin-5-yl)amino)hexyl)-1H-pyrazol-4-yl)quinoxaline-6-carbonitrile] | 100 to 1000 | < 10 | 100 to 1000 | 10 to 100
O=C1CCC(N2C(=O)c3ccc(NCCCC4CC(n5cc(-c6cnc7cccc(F)c7n6)cn5)C4)cc3C2=O)C(=O)N1 (stereo not shown) [GS-164, 2-(2,6-Dioxopiperidin-3-yl)-5-((3-(3-(4-(8-fluoroquinoxalin-2-yl)-1H-pyrazol-1-yl)cyclobutyl)propyl)amino)isoindoline-1,3-dione] | 100 to 1000 | 10 to 100 | 100 to 1000 | 10 to 100
N#Cc1cccc2ncc(-c3cnn(CCCCCCNc4ccc5c(c4)C(=O)N(C4CCC(=O)NC4=O)C5=O)c3)nc12 (stereo not shown) [GS-165, 3-(1-(6-((2-(2,6-Dioxopiperidin-3-yl)-1,3-dioxoisoindolin-5-yl)amino)hexyl)-1H-pyrazol-4-yl)quinoxaline-5-carbonitrile] | 100 to 1000 | 10 to 100 | 100 to 1000 | 10 to 100
Cc1nn(CCCCCCNc2ccc3c(c2)C(=O)N(C2CCC(=O)NC2=O)C3=O)c(C)c1-c1cnc2cccc(C#N)c2n1 (stereo not shown) [GS-166, 3-(1-(6-((2-(2,6-Dioxopiperidin-3-yl)-1,3-dioxoisoindolin-5-yl)amino)hexyl)-3,5-dimethyl-1H-pyrazol-4-yl)quinoxaline-5-carbonitrile] | 10 to 100 | < 10 | 10 to 100 | < 10
Cc1nn(C2CC(CCCNc3ccc4c(c3)C(=O)N(C3CCC(=O)NC3=O)C4=O)C2)c(C)c1-c1cnc2ccccc2n1 (stereo not shown) [GS-167, 5-((3-(3-(3,5-Dimethyl-4-(quinoxalin-2-yl)-1H-pyrazol-1-yl)cyclobutyl)propyl)amino)-2-(2,6-dioxopiperidin-3-yl)isoindoline-1,3-dione] | > 1000 | < 10 | > 1000 | 100 to 1000
Cc1nn([C@H]2C[C@@H](CCCNc3ccc4c(c3)C(=O)N(C3CCC(=O)NC3=O)C4=O)C2)cc1-c1cnc2ccccc2n1 (stereo partly drawn) [GS-168, 2-(2,6-Dioxopiperidin-3-yl)-5-((3-(cis-3-(3-methyl-4-(quinoxalin-2-yl)-1H-pyrazol-1-yl)cyclobutyl)propyl)amino)isoindoline-1,3-dione] | > 1000 | 10 to 100 | 100 to 1000 | 10 to 100
Cc1c(-c2cnc3ccccc3n2)cnn1[C@H]1C[C@@H](CCCNc2ccc3c(c2)C(=O)N(C2CCC(=O)NC2=O)C3=O)C1 (stereo partly drawn) [GS-169, 2-(2,6-Dioxopiperidin-3-yl)-5-((3-(cis-3-(5-methyl-4-(quinoxalin-2-yl)-1H-pyrazol-1-yl)cyclobutyl)propyl)amino)isoindoline-1,3-dione] | > 1000 | 10 to 100 | 100 to 1000 | > 1000
Cc1c(-c2cnc3ccccc3n2)cnn1[C@H]1C[C@H](CCCNc2ccc3c(c2)C(=O)N(C2CCC(=O)NC2=O)C3=O)C1 (stereo partly drawn) [GS-170, 2-(2,6-Dioxopiperidin-3-yl)-5-((3-(trans-3-(5-methyl-4-(quinoxalin-2-yl)-1H-pyrazol-1-yl)cyclobutyl)propyl)amino)isoindoline-1,3-dione] | > 1000 | 10 to 100 | > 1000 | 10 to 100
Cc1nn([C@H]2C[C@H](CCCNc3ccc4c(c3)C(=O)N(C3CCC(=O)NC3=O)C4=O)C2)cc1-c1cnc2ccccc2n1 (stereo partly drawn) [GS-171, 2-(2,6-Dioxopiperidin-3-yl)-5-((3-(trans-3-(3-methyl-4-(quinoxalin-2-yl)-1H-pyrazol-1-yl)cyclobutyl)propyl)amino)isoindoline-1,3-dione] | 10 to 100 | < 10 | 10 to 100 | < 10
CN1CCN(c2ccc3ncc(-c4cnn(C5CC(CCCNc6ccc7c(c6)C(=O)N(C6CCC(=O)NC6=O)C7=O)C5)c4)nc3c2)CC1 (stereo not shown) [GS-172, 2-(2,6-Dioxopiperidin-3-yl)-5-((3-(3-(4-(7-(4-methylpiperazin-1-yl)quinoxalin-2-yl)-1H-pyrazol-1-yl)cyclobutyl)propyl)amino)isoindoline-1,3-dione] | > 1000 | 100 to 1000 | 100 to 1000 | > 1000
O=C1CCC(N2C(=O)c3ccc(NCCCC4CC(n5cc(-c6cnc7ccc(N8CCOCC8)cc7n6)cn5)C4)cc3C2=O)C(=O)N1 (stereo not shown) [GS-173, 2-(2,6-Dioxopiperidin-3-yl)-5-((3-(3-(4-(7-morpholinoquinoxalin-2-yl)-1H-pyrazol-1-yl)cyclobutyl)propyl)amino)isoindoline-1,3-dione] | 10 to 100 | < 10 | 10 to 100 | 10 to 100
O=C1CCC(N2C(=O)c3ccc(NCCCC4CC(n5cc(-c6cnc7ccc(N8CCNCC8)cc7n6)cn5)C4)cc3C2=O)C(=O)N1 (stereo not shown) [GS-174, 2-(2,6-Dioxopiperidin-3-yl)-5-((3-(3-(4-(7-(piperazin-1-yl)quinoxalin-2-yl)-1H-pyrazol-1-yl)cyclobutyl)propyl)amino)isoindoline-1,3-dione] | > 1000 | < 10 | 100 to 1000 | 10 to 100
N#Cc1ccc2ncc(-c3cnn(C4CC(CCCNc5ccc6c(c5)C(=O)N(C5CCC(=O)NC5=O)C6=O)C4)c3)nc2c1 (stereo not shown) [GS-175, 3-(1-(3-(3-((2-(2,6-Dioxopiperidin-3-yl)-1,3-dioxoisoindolin-5-yl)amino)propyl)cyclobutyl)-1H-pyrazol-4-yl)quinoxaline-6-carbonitrile] | 100 to 1000 | < 10 | 100 to 1000 | 10 to 100
O=C1CCC(N2C(=O)c3ccc(NCCC[C@H]4C[C@H](n5cc(-c6cnc7ccccc7n6)cn5)C4)cc3C2=O)C(=O)N1 (stereo partly drawn) [GS-176, 2-(2,6-Dioxopiperidin-3-yl)-5-((3-(trans-3-(4-(quinoxalin-2-yl)-1H-pyrazol-1-yl)cyclobutyl)propyl)amino)isoindoline-1,3-dione] | 100 to 1000 | 10 to 100 | 100 to 1000 | 10 to 100
O=C1CCC(N2C(=O)c3ccc(NCCC[C@H]4C[C@@H](n5cc(-c6cnc7ccccc7n6)cn5)C4)cc3C2=O)C(=O)N1 (stereo partly drawn) [GS-177, 2-(2,6-Dioxopiperidin-3-yl)-5-((3-(cis-3-(4-(quinoxalin-2-yl)-1H-pyrazol-1-yl)cyclobutyl)propyl)amino)isoindoline-1,3-dione] | > 1000 | 10 to 100 | > 1000 | 100 to 1000
O=C1CCC(N2C(=O)c3ccc(NC[C@H]4C[C@H](n5cc(-c6cnc7ccccc7n6)cn5)C4)cc3C2=O)C(=O)N1 (stereo partly drawn) [GS-178, 2-(2,6-Dioxopiperidin-3-yl)-5-(((trans-3-(4-(quinoxalin-2-yl)-1H-pyrazol-1-yl)cyclobutyl)methyl)amino)isoindoline-1,3-dione] | 100 to 1000 | 10 to 100 | 10 to 100 | 10 to 100
O=C1CCC(N2C(=O)c3ccc(NC[C@H]4C[C@@H](n5cc(-c6cnc7ccccc7n6)cn5)C4)cc3C2=O)C(=O)N1 (stereo partly drawn) [GS-179, 2-(2,6-Dioxopiperidin-3-yl)-5-(((cis-3-(4-(quinoxalin-2-yl)-1H-pyrazol-1-yl)cyclobutyl)methyl)amino)isoindoline-1,3-dione] | > 1000 | 100 to 1000 | > 1000 | > 1000
O=C1CCC(N2C(=O)c3ccc(NC[C@H]4C[C@H](n5cc(-c6cnc7ccc(C8CCOCC8)cc7n6)cn5)C4)cc3C2=O)C(=O)N1 (stereo partly drawn) [GS-180, 2-(2,6-Dioxopiperidin-3-yl)-5-(((trans-3-(4-(7-(tetrahydro-2H-pyran-4-yl)quinoxalin-2-yl)-1H-pyrazol-1-yl)cyclobutyl)methyl)amino)isoindoline-1,3-dione] | 100 to 1000 | 10 to 100 | 100 to 1000 | 10 to 100
O=C1CCC(N2C(=O)c3ccc(NCCC[C@H]4C[C@H](n5cc(-c6cnc7ccc(C8CCOCC8)cc7n6)cn5)C4)cc3C2=O)C(=O)N1 (stereo partly drawn) [GS-181, 2-(2,6-Dioxopiperidin-3-yl)-5-((3-(trans-3-(4-(7-(tetrahydro-2H-pyran-4-yl)quinoxalin-2-yl)-1H-pyrazol-1-yl)cyclobutyl)propyl)amino)isoindoline-1,3-dione] | 10 to 100 | < 10 | 10 to 100 | < 10
O=C1CCC(N2C(=O)c3ccc(NCCC[C@H]4C[C@@H](n5cc(-c6cnc7ccc(C8CCOCC8)cc7n6)cn5)C4)cc3C2=O)C(=O)N1 (stereo partly drawn) [GS-182, 2-(2,6-Dioxopiperidin-3-yl)-5-((3-(cis-3-(4-(7-(tetrahydro-2H-pyran-4-yl)quinoxalin-2-yl)-1H-pyrazol-1-yl)cyclobutyl)propyl)amino)isoindoline-1,3-dione] | 100 to 1000 | < 10 | 100 to 1000 | 10 to 100

Reference: patent publication US20240050428A1 (Cullgen (Shanghai), Inc., priority 2020, published 2024)
